# Where two headings read alike, the source gives them in different places.
# Columns and labels:
# [1] = Oral PK and bioavailability of micronized Compound 2 suspension; type: in vivo; conditions: fasted cynomolgus monkeys
# Protocol: (§1) Additional studies were conducted with micronized Compound 2 in rat, dogs (beagles), and cynomolgus monkeys. Animals received a 10 mg/kg dose oral dose of compound formulated as a suspension in 0.5% methyl cellulose in water for injection at a target concentration of 1 mg/mL, and administered a dose volume of 10 mL/kg by oral gavage in rats or fasted dogs and via oral delivery in fasted cynomolgus monkeys. The % F for the rats in these studies was 85%, 36% for the dogs, and 19% for the monkeys. FIG. 11 depicts the pharmacokinetic profile for these species.
# Three studies were conducted in fasted cynomolgus monkeys to determine the PK profile and bioavailability of a suspension formulation of Compound 2. Three monkeys were administered a suspension containing 10 mg/kg micronized Compound 2 by oral gavage. Monkeys were bled before dosing and at 0.25, 0.50, 1, 2, 4, 6, 12, and 24 hours post-dosing. Compound 2 plasma levels were determined by LC/MS/MS. Additional studies were conducted to evaluate the PK profile at higher dose levels of Compound 2 administered to fasted monkeys as an oral suspension. Blood samples were collected prior to dosing and up to 24 hours post-dosing. An additional 48 hour blood sample was collected from monkeys dosed with 300 mg/kg Compound 2. Plasma levels of Compound 2 were determined by LC/MS/MS.
# [2] = Solubility in fasted-state simulated intestinal fluid (FaSSIF); type: physicochemical; conditions: thermodynamic from solid, pH 6.5, 25° C., read-out: Solubility in the FaSSIF model
# Protocol: Solubility was also determined in a fasted-state simulated intestinal fluid (FaSSIF) assay. Briefly, Compound 2 was added to the FaSSIF medium (bile salts, NaOH (0.420 g), NaH2PO4 (3.438 g), NaCl (6.186 g), pH to 6.5, at 25° C., and brought to a 1 L volume) agitated for 30 hours and sampled, centrifuged, and analyzed by UPLC. Solubility in the FaSSIF model was determined to be 1.19 mg/ml.
# [3] = Oral PK and bioavailability of micronized Compound 2 suspension; type: in vivo, Sprague-Dawley rats
# Protocol: as §1
# Several in vivo studies were performed to characterize the bioavailability of Compound 2. In Sprague-Dawley rats, a single oral dose of 10 mg/kg to 1000 mg/kg of Compound 2 were compared in a series of experiments. Compound 2 used in these studies was recrystallized from ethanol and micronized.
# human TRPA1 (hTRPA1) = molecular target: T1, human TRPA1 (hTRPA1) (Homo sapiens, UniProt O75762); test: hTRPA1 IC50 in presence of albumin and plasma, whole-cell patch clamp; type: cell-based; conditions: for IC50: 20 μM AITC
# T1 construct: expressed in transfected cells
# T1 sequence (O75762 whole entry): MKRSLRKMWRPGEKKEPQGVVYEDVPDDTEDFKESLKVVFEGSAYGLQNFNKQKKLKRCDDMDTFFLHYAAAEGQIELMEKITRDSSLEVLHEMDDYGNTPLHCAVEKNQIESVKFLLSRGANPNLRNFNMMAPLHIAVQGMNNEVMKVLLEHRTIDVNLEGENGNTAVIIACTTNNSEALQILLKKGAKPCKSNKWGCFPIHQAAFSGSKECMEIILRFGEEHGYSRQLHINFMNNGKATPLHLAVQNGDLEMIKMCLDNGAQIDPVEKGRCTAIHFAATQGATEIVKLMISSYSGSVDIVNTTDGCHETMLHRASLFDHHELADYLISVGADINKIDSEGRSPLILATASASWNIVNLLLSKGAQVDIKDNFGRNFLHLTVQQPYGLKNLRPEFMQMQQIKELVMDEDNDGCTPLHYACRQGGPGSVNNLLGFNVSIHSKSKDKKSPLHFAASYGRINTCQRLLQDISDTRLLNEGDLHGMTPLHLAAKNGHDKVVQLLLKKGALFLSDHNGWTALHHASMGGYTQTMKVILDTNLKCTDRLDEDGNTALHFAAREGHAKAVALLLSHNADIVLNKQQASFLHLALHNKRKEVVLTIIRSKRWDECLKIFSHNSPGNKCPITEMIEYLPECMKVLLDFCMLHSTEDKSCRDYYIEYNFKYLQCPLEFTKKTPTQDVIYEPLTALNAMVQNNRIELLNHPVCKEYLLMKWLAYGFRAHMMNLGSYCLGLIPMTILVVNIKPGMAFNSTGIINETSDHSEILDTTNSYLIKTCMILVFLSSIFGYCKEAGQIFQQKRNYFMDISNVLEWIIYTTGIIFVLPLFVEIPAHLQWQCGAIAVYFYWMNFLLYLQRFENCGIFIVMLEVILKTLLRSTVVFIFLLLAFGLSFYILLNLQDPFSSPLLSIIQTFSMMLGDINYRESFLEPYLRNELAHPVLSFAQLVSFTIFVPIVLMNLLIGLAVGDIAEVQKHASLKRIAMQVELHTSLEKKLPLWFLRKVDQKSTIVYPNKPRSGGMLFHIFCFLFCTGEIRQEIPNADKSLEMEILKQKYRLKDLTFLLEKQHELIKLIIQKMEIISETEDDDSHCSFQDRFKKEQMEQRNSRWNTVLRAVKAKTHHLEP
# Excerpt: The change in IC50 block in the presence of albumin and plasma was also studied. It is assumed that the pharmacological effect of a drug correlates to unbound plasma levels, which is known as the “free drug hypothesis”. The aim of this study was to estimate the change in IC50 for block of human TRPA1 (hTRPA1) by Compound 2 in the presence of physiologically relevant concentrations of albumin and plasma (see Table 7). The human form of TRPA1 was used to assess protein binding in all species due to technical issues. The whole-cell patch clamp technique as described in del Camino, D. et al. J Neurosci 74 (2010) 30:15165 was employed to measure current through hTRPA1 upon activation by allyl isothiocyanate (AITC), the active ingredient in mustard oil, in the presence of 1% (w/v) serum albumin or 25% (v/v) plasma from various species including human plasma (hPlasma), human serum albumin (HSA), rat plasma (rPlasma), rat serum albumin (RSA), dog plasma, and sheep serum albumin (sheepSA). Compound 2 was sub-diluted from a 10 mM stock in DMSO to 10 and 100 μM in DMSO, then diluted into Ringer solution at the concentrations referenced in Table 7 and Table 8.
# [4] = Solubility in simulated gastrointestinal fluid (SGF); type: physicochemical; conditions: simulated gastric fluid, thermodynamic from solid, HCl 0.1N at 25° C.
# Protocol: Solubility was further assessed in simulated gastrointestinal fluid (SGF) (HCl 0.1N at 25° C.). Briefly, compound was agitated for 30 hours and sampled, centrifuged, and analyzed by UPLC.
# cynomolgus monkeys = test: Hepatotoxicity safety profile, serum biomarkers; type: in vivo; conditions: for ALP d28 / ALT d28 / AST d28 / GGT d28: day 28
# Protocol: Compound 2 in the vehicle (0.5% methylcellulose, 400 cps) was administered via nasogastric intubation once daily for 28 or 29 consecutive days to 4 groups of cynomolgus monkeys. Each group received one dose level. Dosage levels were 10, 30, 100, and 300 mg/kg/day per group. […] The dosage volume was 10 ml/kg for all groups. Hepatoxicity was measured via the serum biomarkers of alanine aminotransferease [ALT], aspartate aminotransferase [AST], alkaline phosphastase [ALP] and gamma-glutamyl transferase [GGT] which represent hepatotoxicity or bile duct injury.
smiles,measurement,setting,value
"C[C@@H](C(=O)Nc1ccnc(-c2cnc(N3CCC[C@H]3C(F)(F)F)nc2)n1)n1cnc2c1c(=O)n(C)c(=O)n2C [Compound 2, (S)-2-(1,3-dimethyl-2,6-dioxo-2,3-dihydro-1H-purin-7(6H)-yl)-N-(2′-((S)-2-(trifluoromethyl)pyrrolidin-1-yl)-[2,5′-bipyrimidin]-4-yl)propanamide]",bioavailability,"[1]; cynomolgus monkey, plasma, 10 mg/kg oral, micronized suspension",19%
same,Exposures on an AUC and Cmax basis versus dose,[1]; oral suspension,increased with doses up to 1000 mg/kg
same,solubility at 30 h,[2],1190 µg/mL
same,Exposures based on AUC and Cmax versus dose,"[3]; Sprague-Dawley rats, single oral dose 10 mg/kg to 1000 mg/kg",increased with doses up to 1000 mg/kg
same,bioavailability,"[3]; Sprague-Dawley, rat, plasma, rats, 10 mg/kg oral, micronized suspension in 0.5% methyl cellulose",85%
same,IC50,"human TRPA1 (hTRPA1); 1% (w/v) rat serum albumin, read-out: IC50 + RSA",0.095 ± 0.009 µM
same,IC50,"human TRPA1 (hTRPA1); 1% (w/v) sheep serum albumin, read-out: IC50 + SheepSA",0.07 ± 0.01 µM
same,IC50,"human TRPA1 (hTRPA1); 25% (v/v) dog plasma, read-out: IC50 + dog Plasma",0.221 ± 0.054 µM
same,IC50,"human TRPA1 (hTRPA1); 25% (v/v) human plasma, read-out: IC50 + hPlasma",0.095 ± 0.002 µM
same,IC50,"human TRPA1 (hTRPA1); 25% (v/v) rat plasma, read-out: IC50 + rPlasma",0.068 ± 0.008 µM
same,Fold Shift,human TRPA1 (hTRPA1); IC50 + RSA,14X
same,Fold Shift,human TRPA1 (hTRPA1); IC50 + SheepSA,10X
same,Fold Shift,human TRPA1 (hTRPA1); IC50 + dog Plasma,32X
same,Fold Shift,human TRPA1 (hTRPA1); IC50 + hPlasma vs IC50 in absence of serum,14 X
same,Fold Shift,human TRPA1 (hTRPA1); IC50 + rPlasma,10X
same,binding to plasma proteins based on the shift in IC50,human TRPA1 (hTRPA1); across the four species tested,90-97%
same,time to complete block and reversal upon washout,human TRPA1 (hTRPA1); hTRPA1 currents,2 to 3 min
same,solubility at 30 h,[4],1050 µg/mL
same,ALP d28,cynomolgus monkeys; 10 mg/kg/day nasogastric,744.0 U/L
same,ALT d28,cynomolgus monkeys; 10 mg/kg/day nasogastric,87.0 U/L
same,AST d28,cynomolgus monkeys; 10 mg/kg/day nasogastric,126.0 U/L
same,GGT d28,cynomolgus monkeys; 10 mg/kg/day nasogastric,64.0 U/L
same,ALP d28,cynomolgus monkeys; 30 mg/kg/day nasogastric,461.0 U/L
same,ALT d28,cynomolgus monkeys; 30 mg/kg/day nasogastric,50.0 U/L
same,AST d28,cynomolgus monkeys; 30 mg/kg/day nasogastric,72.0 U/L
same,GGT d28,cynomolgus monkeys; 30 mg/kg/day nasogastric,49.0 U/L
same,ALP d28,cynomolgus monkeys; 100 mg/kg/day nasogastric,532.0 U/L
same,ALT d28,cynomolgus monkeys; 100 mg/kg/day nasogastric,61.0 U/L
same,AST d28,cynomolgus monkeys; 100 mg/kg/day nasogastric,70.0 U/L
same,GGT d28,cynomolgus monkeys; 100 mg/kg/day nasogastric,53.7 U/L
same,ALP d28,cynomolgus monkeys; 300 mg/kg/day nasogastric,441.0 U/L
same,ALT d28,cynomolgus monkeys; 300 mg/kg/day nasogastric,67.0 U/L
same,AST d28,cynomolgus monkeys; 300 mg/kg/day nasogastric,134.0 U/L
same,GGT d28,cynomolgus monkeys; 300 mg/kg/day nasogastric,54.8 U/L
same,"serum biomarkers of hepatotoxicity (ALT, AST, ALP, GGT)","cynomolgus monkeys; cynomolgus monkeys, once daily for 28 or 29 days",did not elevate the serum biomarkers up to and including a dose of 300 mg/kg
